Tests used:
Type in all cases: cell-based
[1] = test system: microorganisms associated with skin, dental, ENTR; assay: Dose response assay, raffinose vs equimolar trimix and individual saccharides, K12; details: equimolar concentration
Protocol: CABCa agar plates containing various concentrations of saccharide were prepared according to the methods described in Method 1. Producer strains were transferred from stock agar plates into 900 μL THB using a fresh cotton swab. A plastic spread plater was cut to approximately 1.2 cm width and then dipped into ethanol and left to air dry to ensure sterility. A 100 μL sample of the producer strain suspension was then dispensed onto the agar surface in a straight line running diametrically across the agar surface in (approximately) 20 μL spots. The spots were spaced approximately 1.5 cm apart from each other. The plastic spreader was then used to evenly distribute the spots across the agar surface in a 1.5 cm wide strip. This step was taken to ensure an even producer streak was inoculated onto the agar surface and provided an approximate measure of the initial inoculum concentration. Separate plastic spreaders were used for samples containing different producer strains. The samples were left to soak into the agar surface until there was no visible liquid remaining on the agar surface (approximately 20 minutes). Following producer streak preparations, the deferred antagonism assay protocol was followed as per Method 2. Results were recorded by measuring the size of the zone of inhibition (ZOI) in mm. […]

[2] = test system: H. influenzae TW5; assay: Dose response deferred antagonism assay, producer M18; details: 1.5% (w/v) raffinose
[3] = test system: P. aeruginosa I2; assay: as above; details: 1.5% (w/v) raffinose
[4] = test system: halitosis-causing gram-negative bacteria F. nucleatum, P. gingivalis and P. intermedia; assay: Deferred antagonism assay (anaerobic), producer M18; details: 2.5% w/w raffinose; or combination with 0.5% w/w galactose
Protocol: (§1) Method: CABCa agar plates were prepared with or without 2.5% w/w raffinose, 0.5% w/w galactose or a combination of both saccharides by the addition of 0.5% (w/v) calcium carbonate to solid CAB agar in bottles and then melted by autoclaving at 110° C. for 10 mins. Once cooled, filter sterilised solutions of the saccharides or distilled water were added and mixed and then 20 ml pipetted into petri dishes.
A deferred antagonism assay was conducted using K12 or M18 raw ingredient suspended in THB. This was spread as a 1.2 cm streak containing approximately 1-2×10^6 cfu down the middle of a CABCa control or CABCa galactose supplemented test plate. After 18 hrs growth at 37° C., 5% CO2 in air, bacterial growth was removed, and the pH of the agar in the initial streak was measured and adjusted to a pH of 6.5-7.5 using 0.5M sodium carbonate pH11 before sterilizing the agar surface using chloroform vapor. Bacterial test strains were suspended in THB and swabbed across the plates perpendicular to the initial streak and then the plates were incubated at 37° C. in an anaerobic jar containing an anaeroGen sachet for 4 days. Zones of inhibition for each test strain were then measured (mm).

[5] = test system: H. influenzae TW5; assay: Dose response deferred antagonism assay, producer K12
Protocol: (§2) 1-2 producer strain colonies were transferred from a stock plate into 900 μL of suspension solution using a fresh cotton swab. Following this, suspensions were vortexed, and a sample was inoculated onto solid culture media using a fresh cotton swab. The inoculation was a streak that runs diametrically across the agar plate in a 1.5 cm wide strip. The plate was then incubated. Following incubation all visible colonies were removed by swabbing them from the agar surface. The plates were then treated with chloroform by dispensing 2 ml of chloroform onto 4 cm×4 cm piece of cloth and sealing the inverted agar plate on top for 30 minutes. The plates were then air dried for 30 minutes following chloroforming. 1-2 indicator strain colonies were then transferred from a stock plate into complementary suspension solution. The suspensions were then vortexed, and a sample was inoculated onto the same agar surface. These samples were streaked in a perpendicular direction to the initial producer streak.
(§3) Each indicator streak was prepared with fresh a suspension containing cells from a corresponding stock plate containing the indicator strain of interest. Indicator strains suspension samples were transferred using a fresh cotton swab. Results were measured by qualitatively reviewing the subsequent (if any) sizes of the zones of inhibition (ZOI) of indicator strain colony growth. A positive result is when there is a distinctive reduction or complete inhibition of indicator colony growth on the culture medium.
(§4) CABCa agar plates containing various concentrations of saccharide were prepared according to the methods described in Method 1. Producer strains were transferred from stock agar plates into 900 μL THB using a fresh cotton swab. A plastic spread plater was cut to approximately 1.2 cm width and then dipped into ethanol and left to air dry to ensure sterility. A 100 μL sample of the producer strain suspension was then dispensed onto the agar surface in a straight line running diametrically across the agar surface in (approximately) 20 μL spots. The spots were spaced approximately 1.5 cm apart from each other. The plastic spreader was then used to evenly distribute the spots across the agar surface in a 1.5 cm wide strip. This step was taken to ensure an even producer streak was inoculated onto the agar surface and provided an approximate measure of the initial inoculum concentration. Separate plastic spreaders were used for samples containing different producer strains. The samples were left to soak into the agar surface until there was no visible liquid remaining on the agar surface (approximately 20 minutes). Following producer streak preparations, the deferred antagonism assay protocol was followed as per Method 2. Results were recorded by measuring the size of the zone of inhibition (ZOI) in mm.
(§5) The results presented in FIG. 1 and FIG. 2 illustrate the change in ear, nose, and throat (ENT) microorganism indicator strain zone of inhibition sizes. When K12 was cultured in the presence of various concentrations of galactose the ZOI sizes for several of the ENTR indicator strains increased markedly from the control condition (FIG. 1). M. catarrhalis TW1 and TW2 display similar changes in the ZOI sizes across the various concentrations of galactose. The change in TW1 ZOI size peaks at 1.5% galactose(w/v) (12 mm) then decreases at 2.0% galactose (w/v), whereas the change of TW2 ZOI size peaks at 2.0% galactose (w/v) (11 mm). The change in L. lactis T-21 ZOI sizes trend upwards relative to the concentration of galactose present in the culture medium.

[6] = test system: S. sobrinus OMZ176; assay: Deferred antagonism assay, producer S. salivarius M18; details: Streptococcus sobrinus, read-out: Size of zone inhibition normalised to control, S. sobrinus OMZ176
Protocol: as §2, §3
as §1, with “0.5, 1.25, 1.7, 2.5, 3.3 and 5%” for “2.5% w/w raffinose, 0.5% w/w”, “galactose” for “galactose or a combination of both saccharides”
(§6) A deferred antagonism assay was conducted using K12 or M18 raw ingredient suspended in Todd Hewitt broth (THB). This was spread as a 1.2 cm streak containing approximately 1-2×10^6 cfu down the middle of a CABCa control or CABCa galactose supplemented test plate. After 18 hrs growth at 37° C. with 5% CO2, bacterial growth was removed, and the pH of the agar in the initial streak was measured and adjusted to a pH of 6.5-7.5 using 0.5M sodium carbonate pH11 before sterilizing the agar surface using chloroform vapor. Bacterial test strains were suspended in i-THB before being swabbed across the plates perpendicular to the initial streak. Plates were incubated for a further 18 hrs incubation at 37° C. with 5% CO2 before measuring (mm) any zones of inhibition for each test strain, […]

[7] = test system: S. sobrinus OMZ176; assay: Deferred antagonism assay, producer S. salivarius K12; details: Streptococcus sobrinus, read-out: Size of zone inhibition normalised to control, S. sobrinus OMZ176
Protocol: as §2, §3
as §1, with “0.5, 1.25, 1.7, 2.5, 3.3 and 5%” for “2.5% w/w raffinose, 0.5% w/w”, “galactose” for “galactose or a combination of both saccharides”
as §6

[8] = test system: S. pyogenes M76; assay: Dose response deferred antagonism assay, producer M18; details: 1.5% (w/v) galactose, largest
[9] = test system: S. pyogenes M57; assay: Dose response deferred antagonism assay, producer K12; details: 0.1%, 1.0%, and 1.5% (w/v) galactose
Protocol: as §2, §3, §4, §5

SMILES | inhibitory activity of K12 compared to equivalent composition of the three monomeric saccharides [1] | H. influenzae TW5 ZOI size [2] [mm] | P. aeruginosa I2 ZOI [3] [mm] | antimicrobial activity of M18 against halitosis-causing bacteria [4] | change in ZOI size for H. influenzae TW5 ([5]; 1.5% raffinose (w/v), peak) [mm] | TW5 ZOI size change ([5]; 2% raffinose (w/v)) [mm] | zone of inhibition at 0.5 % strength ([6]; Galactose 0.5% w/w) [mm] | zone of inhibition at 1.25 % strength ([6]; Galactose 1.25% w/w) [mm] | zone of inhibition at 1.7 % strength ([6]; Galactose 1.7% w/w) [mm] | zone of inhibition at 2.5 % strength ([6]; Galactose 2.5% w/w) [mm] | zone of inhibition at 3.3 % strength ([6]; Galactose 3.3% w/w) [mm] | zone of inhibition at 5 % strength ([6]; Galactose 5% w/w) [mm] | zone of inhibition at 1.25 % strength ([7]; Galactose 1.25% w/w) [mm] | zone of inhibition at 1.7 % strength ([7]; Galactose 1.7% w/w) [mm] | zone of inhibition at 2.5 % strength ([7]; Galactose 2.5% w/w) [mm] | zone of inhibition at 3.3 % strength ([7]; Galactose 3.3% w/w) [mm] | zone of inhibition at 5 % strength ([7]; Galactose 5% w/w) [mm] | S. pyogenes M76 zone of inhibition [8] [mm] | S. pyogenes M57 ZOI sizes vs control condition [9]
OC[C@H]1O[C@H](OC[C@H]2O[C@H](O[C@]3(CO)O[C@H](CO)[C@@H](O)[C@@H]3O)[C@H](O)[C@@H](O)[C@@H]2O)[C@H](O)[C@@H](O)[C@H]1O [Raffinose, D-(+) Raffinose pentahydrate] | better inhibitory activity | 26 | 10 | inhibit some strains | 12 | 0 |  |  |  |  |  |  |  |  |  |  |  |  | 
O=C[C@H](O)[C@@H](O)[C@@H](O)[C@H](O)CO [Galactose, D-galactose] |  |  |  |  |  |  | 0 | 0 | 0 | 0 | 0 | 0 | 0 | 0 | 0 | 0 | 0 | 14 | increase

— US20240390434A1, “PROBIOTIC ENHANCERS AND USES THEREOF” (Blis Technologies Limited, priority 2021, published 2024)
